The values that follow come from US10677783B2, “Method for evaluating effect of cytokine on metabolic activity of cytochrome P450, and drug screening method” (Corning Incorporated, priority 2012, dated 2020).

The series deals with CYP3A4. In words: CYP3A4 mRNA expression by RT-qPCR in spheroid-shaped FLC-4 cells (example, MICRO-SPACE). In kind it is cell-based, human. The text has this:
A plurality of culture chambers 10a are formed on the bottom culture surface of each well 21a. Each culture chamber 10a includes culture rooms 11a each having the equivalent diameter D of 200 μm and the height H of 100 μm. The width W of each wall 12a is 10 μm.
As cells to be cultured, FLC-4 cells which are established hepatocyte cell lines […] were used.
As a culture medium, a DMEM/F 12 culture medium containing 10% fetal bovine serum (FBS) was used. A cell suspension was adjusted at a cell seeding density of 16×10^5 cells/mL.
The cells were cultured in a CO2 incubator for 10 to 11 days. The culture medium was replaced once every three days.
The total amount of old culture medium was removed from each well by using a pipette (culture medium removing process).
A test solution or a control solution was added to each well (test solution addition process).
The cells were incubated in a CO2 incubator for eight hours, 24 hours, or 48 hours at 37° C. (contact process).
The test solution was obtained in such a manner that the cytokine was dissolved at each concentration shown in Table 1 in a DMEM/F12 solution (DMEM/E12 FBS(−)) containing no serum.
In an RNA extraction, one sample corresponding to two wells 21a of the culture plate 1a was extracted according to the protocol of NucleoSpin® RNAII (Macherey-Nagel). Only the portion to be subjected to Dnase treatment was modified, and DNaseI recombinant, RNase-free (Roche, Branchburg, N.J., USA) was used. The total RNA underwent reverse transcription reaction using High-Capacity cDNA Reverse Transcription Kits (Applied. Biosystems, Foster City, Calif., USA) and an attached random hexamer primer, and the first strand cDNA was synthesized.
The analysis was made using a total amount of 20 μL of reaction liquid containing 9.6 μL of EagleTaq Master Mix with ROX (Roche, Branchburg, N.J., USA), 0.96 μL of 20× Assays-on-Demand™ Gene Expression Assay Mix (Applied Biosystems), 7.1 μL of sterilized MiliQ water, and 1.8 μL of cDNA diluted by a factor of 5, and the reaction liquid was measured by Real-time PCR.
On the technique in general: Quantitative PCR measures a nucleic acid by following its amplification.

Regarding `COc1cc2ncnc(Nc3ccc(F)c(Cl)c3)c2cc1OCCCN1CCOCC1` [Gefitinib, reference compound], under “10 ng/mL EGF + 5 μM Gefitinib vs 10 ng/mL EGF alone, FIG. 20”, the “value of the metabolic function of CYP3A4 (mRNA expression level), third test solution versus second test solution” value is recorded as “three times higher”. Also, the “determination of the drug's effect on the drug-metabolizing function of the cytochrome P450” value (10 ng/mL EGF + 5 μM Gefitinib, first to third test solutions compared) is on record as “restores the drug-metabolizing function of the cytochrome P450”. With interleukin-1β, where the note is “spheroid-shaped established hepatocyte cell line, contact for 0, four and eight hours, FIG. 9”, the “gene expression level of CYP3A4 versus contact time” value was “decreases over time”.
